# Assay results taken from publication doi:10.1101/2023.03.24.534094v2 (biorxiv, 2023).
# Where two headings read alike, the source gives them in different places.
# Tests used:
# Assay in all cases: biochemical
# [1] = molecular target: BIKE (Homo sapiens, UniProt Q9NSY1)
# [2] = molecular target: CaMK1g (Homo sapiens, UniProt Q96NX5)
# [3] = molecular target: T1, DMPK1 (Homo sapiens, UniProt Q09013)
# T1 sequence (Q09013 1-629): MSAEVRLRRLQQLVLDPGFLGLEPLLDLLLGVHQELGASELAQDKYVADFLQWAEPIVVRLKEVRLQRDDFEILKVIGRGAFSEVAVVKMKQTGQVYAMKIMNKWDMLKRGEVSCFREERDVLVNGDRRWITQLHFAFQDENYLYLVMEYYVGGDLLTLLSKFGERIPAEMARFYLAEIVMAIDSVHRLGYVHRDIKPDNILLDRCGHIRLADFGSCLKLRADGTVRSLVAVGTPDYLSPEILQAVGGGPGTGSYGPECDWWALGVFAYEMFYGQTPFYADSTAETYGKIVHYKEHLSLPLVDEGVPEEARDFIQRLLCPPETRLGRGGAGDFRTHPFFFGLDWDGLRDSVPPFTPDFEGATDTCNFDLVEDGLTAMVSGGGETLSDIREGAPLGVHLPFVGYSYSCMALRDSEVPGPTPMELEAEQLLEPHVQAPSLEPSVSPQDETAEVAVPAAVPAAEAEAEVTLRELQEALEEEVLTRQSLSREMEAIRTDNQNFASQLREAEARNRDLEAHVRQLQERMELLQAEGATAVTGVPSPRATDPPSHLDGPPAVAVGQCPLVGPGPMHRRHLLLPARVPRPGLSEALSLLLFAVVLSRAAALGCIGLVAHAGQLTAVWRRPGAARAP
# [4] = molecular target: T2, EphB3 (Homo sapiens, UniProt P54753)
# T2 sequence (P54753 1-998): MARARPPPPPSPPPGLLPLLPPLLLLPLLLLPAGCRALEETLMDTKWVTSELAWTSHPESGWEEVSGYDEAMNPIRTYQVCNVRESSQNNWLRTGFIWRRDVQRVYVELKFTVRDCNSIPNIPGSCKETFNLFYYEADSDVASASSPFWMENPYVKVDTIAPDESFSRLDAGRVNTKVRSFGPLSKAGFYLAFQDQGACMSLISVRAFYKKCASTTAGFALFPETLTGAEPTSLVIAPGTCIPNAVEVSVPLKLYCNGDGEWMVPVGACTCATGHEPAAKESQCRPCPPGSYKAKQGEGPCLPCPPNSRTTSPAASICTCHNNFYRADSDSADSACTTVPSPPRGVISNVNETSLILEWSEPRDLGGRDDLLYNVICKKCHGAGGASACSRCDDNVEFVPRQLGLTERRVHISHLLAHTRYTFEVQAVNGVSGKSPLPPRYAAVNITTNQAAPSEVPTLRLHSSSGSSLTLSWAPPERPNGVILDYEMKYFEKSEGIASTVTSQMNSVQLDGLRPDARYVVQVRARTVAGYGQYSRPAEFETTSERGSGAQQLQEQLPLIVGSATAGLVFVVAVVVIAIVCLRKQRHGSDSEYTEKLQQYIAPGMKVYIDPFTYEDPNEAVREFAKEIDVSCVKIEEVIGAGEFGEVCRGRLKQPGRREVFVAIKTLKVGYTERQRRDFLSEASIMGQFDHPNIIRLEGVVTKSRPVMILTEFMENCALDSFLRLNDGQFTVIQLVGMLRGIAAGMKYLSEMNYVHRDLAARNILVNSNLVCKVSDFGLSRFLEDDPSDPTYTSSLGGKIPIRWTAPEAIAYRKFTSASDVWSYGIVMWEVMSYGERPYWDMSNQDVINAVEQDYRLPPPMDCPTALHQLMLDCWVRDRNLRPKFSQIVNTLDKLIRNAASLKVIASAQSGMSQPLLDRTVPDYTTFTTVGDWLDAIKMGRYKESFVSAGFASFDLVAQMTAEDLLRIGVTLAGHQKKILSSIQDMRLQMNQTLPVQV
# [5] = molecular target: T3, MAP2K7 (Homo sapiens, UniProt O14733)
# T3 sequence (O14733 1-419): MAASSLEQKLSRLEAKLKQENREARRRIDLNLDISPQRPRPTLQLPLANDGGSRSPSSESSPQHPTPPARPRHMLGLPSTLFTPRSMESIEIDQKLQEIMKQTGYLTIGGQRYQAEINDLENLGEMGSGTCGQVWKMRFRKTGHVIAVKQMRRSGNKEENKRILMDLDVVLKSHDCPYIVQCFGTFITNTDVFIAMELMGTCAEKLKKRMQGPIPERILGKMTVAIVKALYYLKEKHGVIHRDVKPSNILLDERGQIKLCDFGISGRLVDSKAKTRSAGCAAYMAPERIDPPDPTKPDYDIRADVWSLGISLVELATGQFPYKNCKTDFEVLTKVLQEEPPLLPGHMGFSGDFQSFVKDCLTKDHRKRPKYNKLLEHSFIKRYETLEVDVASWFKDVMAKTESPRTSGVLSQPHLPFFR
# [6] = molecular target: T4, NQO2A (Homo sapiens, UniProt P16083)
# T4 sequence (P16083 1-231): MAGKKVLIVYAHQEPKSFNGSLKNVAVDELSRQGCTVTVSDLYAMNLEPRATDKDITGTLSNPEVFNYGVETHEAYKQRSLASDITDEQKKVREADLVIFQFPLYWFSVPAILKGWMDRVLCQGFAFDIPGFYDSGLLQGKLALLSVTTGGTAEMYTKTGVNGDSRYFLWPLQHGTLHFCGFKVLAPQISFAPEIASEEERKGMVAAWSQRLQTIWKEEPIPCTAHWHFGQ
# [7] = molecular target: STLK3 (Homo sapiens, UniProt Q9UEW8)
# [8] = molecular target: TAF1 (Homo sapiens, UniProt P21675)
# Sequence of TAF1 (P21675 whole entry): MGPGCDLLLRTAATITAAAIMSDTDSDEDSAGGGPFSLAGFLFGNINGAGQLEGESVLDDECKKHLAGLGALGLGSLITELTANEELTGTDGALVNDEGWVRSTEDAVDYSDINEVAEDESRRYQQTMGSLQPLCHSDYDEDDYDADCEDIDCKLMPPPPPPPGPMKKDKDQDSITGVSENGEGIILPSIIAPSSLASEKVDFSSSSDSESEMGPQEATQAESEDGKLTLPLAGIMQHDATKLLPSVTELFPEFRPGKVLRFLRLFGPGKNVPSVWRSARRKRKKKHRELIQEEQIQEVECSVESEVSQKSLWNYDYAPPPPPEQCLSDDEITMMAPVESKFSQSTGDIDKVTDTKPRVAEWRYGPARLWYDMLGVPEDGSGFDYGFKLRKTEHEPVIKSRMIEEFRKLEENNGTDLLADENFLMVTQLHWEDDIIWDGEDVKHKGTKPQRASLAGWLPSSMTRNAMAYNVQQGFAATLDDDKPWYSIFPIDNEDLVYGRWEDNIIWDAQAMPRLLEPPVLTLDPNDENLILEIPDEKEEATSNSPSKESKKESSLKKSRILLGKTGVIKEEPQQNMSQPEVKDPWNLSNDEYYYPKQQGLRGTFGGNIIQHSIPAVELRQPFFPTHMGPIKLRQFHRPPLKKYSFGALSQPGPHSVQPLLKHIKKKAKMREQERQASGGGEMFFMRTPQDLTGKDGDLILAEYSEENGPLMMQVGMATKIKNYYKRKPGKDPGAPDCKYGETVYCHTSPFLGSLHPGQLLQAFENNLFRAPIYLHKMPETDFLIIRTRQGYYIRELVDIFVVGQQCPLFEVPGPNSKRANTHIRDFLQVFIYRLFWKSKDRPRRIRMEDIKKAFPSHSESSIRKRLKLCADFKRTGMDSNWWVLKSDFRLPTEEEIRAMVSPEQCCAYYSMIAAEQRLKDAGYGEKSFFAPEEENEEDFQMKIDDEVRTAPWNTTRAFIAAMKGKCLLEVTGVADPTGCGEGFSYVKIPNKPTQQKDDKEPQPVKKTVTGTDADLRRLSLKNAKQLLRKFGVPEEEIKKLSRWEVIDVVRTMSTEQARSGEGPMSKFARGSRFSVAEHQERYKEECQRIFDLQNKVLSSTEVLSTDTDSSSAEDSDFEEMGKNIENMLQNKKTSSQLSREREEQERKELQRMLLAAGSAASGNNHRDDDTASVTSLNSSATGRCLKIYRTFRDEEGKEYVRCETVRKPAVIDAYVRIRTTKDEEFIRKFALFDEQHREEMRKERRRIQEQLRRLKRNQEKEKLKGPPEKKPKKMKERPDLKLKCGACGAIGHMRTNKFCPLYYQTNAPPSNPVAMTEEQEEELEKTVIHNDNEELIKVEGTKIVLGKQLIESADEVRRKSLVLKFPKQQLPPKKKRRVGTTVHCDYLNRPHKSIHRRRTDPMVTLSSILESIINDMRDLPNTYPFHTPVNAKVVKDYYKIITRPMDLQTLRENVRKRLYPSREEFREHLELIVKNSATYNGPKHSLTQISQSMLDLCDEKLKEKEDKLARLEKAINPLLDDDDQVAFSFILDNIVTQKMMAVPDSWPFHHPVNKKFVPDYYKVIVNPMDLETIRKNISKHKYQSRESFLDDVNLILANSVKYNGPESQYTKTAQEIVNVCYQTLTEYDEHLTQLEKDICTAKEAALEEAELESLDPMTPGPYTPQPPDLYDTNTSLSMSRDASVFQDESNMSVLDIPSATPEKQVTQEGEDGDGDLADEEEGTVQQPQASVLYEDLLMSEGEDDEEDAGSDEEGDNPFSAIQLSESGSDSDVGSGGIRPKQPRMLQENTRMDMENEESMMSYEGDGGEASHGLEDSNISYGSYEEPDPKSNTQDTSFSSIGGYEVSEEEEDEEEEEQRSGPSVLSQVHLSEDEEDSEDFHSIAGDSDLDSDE
# Sequence of BIKE (Q9NSY1 whole entry): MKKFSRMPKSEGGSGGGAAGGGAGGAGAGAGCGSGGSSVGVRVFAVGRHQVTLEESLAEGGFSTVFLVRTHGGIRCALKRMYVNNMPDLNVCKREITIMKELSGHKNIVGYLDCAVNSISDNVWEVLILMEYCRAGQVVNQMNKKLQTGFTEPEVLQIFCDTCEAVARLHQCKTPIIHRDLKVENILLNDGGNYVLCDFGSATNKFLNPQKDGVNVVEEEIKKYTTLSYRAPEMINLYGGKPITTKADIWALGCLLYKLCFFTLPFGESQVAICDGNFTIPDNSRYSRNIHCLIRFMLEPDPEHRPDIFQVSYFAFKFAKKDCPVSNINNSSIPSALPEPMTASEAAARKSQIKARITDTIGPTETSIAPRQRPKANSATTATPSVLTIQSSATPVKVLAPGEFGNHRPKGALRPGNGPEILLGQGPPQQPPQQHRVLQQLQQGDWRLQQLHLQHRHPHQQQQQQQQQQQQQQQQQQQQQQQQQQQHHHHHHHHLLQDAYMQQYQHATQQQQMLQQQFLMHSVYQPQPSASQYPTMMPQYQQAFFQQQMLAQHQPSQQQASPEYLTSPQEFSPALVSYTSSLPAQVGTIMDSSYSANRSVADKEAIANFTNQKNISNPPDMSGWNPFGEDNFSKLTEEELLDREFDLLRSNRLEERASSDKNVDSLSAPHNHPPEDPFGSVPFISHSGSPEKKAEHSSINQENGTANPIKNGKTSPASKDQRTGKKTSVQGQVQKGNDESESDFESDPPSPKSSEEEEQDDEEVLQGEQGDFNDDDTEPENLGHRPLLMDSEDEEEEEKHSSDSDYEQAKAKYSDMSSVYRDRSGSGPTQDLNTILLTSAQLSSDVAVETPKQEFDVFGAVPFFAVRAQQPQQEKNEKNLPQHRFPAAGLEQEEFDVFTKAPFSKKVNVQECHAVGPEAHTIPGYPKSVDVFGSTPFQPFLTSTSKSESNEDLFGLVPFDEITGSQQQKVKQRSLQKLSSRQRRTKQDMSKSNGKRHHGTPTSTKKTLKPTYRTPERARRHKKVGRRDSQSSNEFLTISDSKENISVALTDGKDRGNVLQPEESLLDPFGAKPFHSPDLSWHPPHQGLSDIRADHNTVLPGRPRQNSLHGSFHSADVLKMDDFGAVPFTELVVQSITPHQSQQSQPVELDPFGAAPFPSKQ
# Sequence of CaMK1g (Q96NX5 whole entry): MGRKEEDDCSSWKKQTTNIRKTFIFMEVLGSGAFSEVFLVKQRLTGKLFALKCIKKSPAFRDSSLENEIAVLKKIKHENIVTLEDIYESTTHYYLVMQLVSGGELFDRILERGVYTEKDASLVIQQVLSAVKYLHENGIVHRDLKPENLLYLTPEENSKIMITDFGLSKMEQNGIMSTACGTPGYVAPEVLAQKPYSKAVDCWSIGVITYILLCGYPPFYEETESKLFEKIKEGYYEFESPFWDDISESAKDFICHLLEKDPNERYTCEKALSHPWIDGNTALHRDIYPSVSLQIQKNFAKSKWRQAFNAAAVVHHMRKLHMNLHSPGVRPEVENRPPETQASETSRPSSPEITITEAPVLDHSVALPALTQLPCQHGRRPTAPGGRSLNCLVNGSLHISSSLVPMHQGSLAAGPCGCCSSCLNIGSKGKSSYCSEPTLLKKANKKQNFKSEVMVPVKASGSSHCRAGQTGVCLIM
smiles,measurement,setting,value
"CNc1ncc2cc(-c3cc(Cl)ccc3Cl)c(=O)n(CCCCN)c2n1 [compound 8, 8-(4-Aminobutyl)-6-(2,5-dichlorophenyl)-2-(methylamino)pyrido[2,3-d]pyrimidin-7(8H)-one]",ΔTm at 10 µM,[1]; read-out: dTm 8,1.1 °C
same,ΔTm at 10 µM,[2]; read-out: dTm 8,1.1 °C
same,ΔTm at 10 µM,[3]; read-out: dTm 8,1.3 °C
same,ΔTm at 10 µM,[4]; read-out: dTm 8,4.1 °C
same,ΔTm at 10 µM,[5]; read-out: dTm 8,0.6 °C
same,ΔTm at 10 µM,[6]; read-out: dTm 8,0.5 °C
same,ΔTm at 10 µM,[7]; read-out: dTm 8,0.2 °C
same,ΔTm at 10 µM,[8]; read-out: dTm 8,-0.7 °C
"CNc1ncc2cc(-c3cc(C(F)(F)F)ccc3Cl)c(=O)n(CCCCN)c2n1 [compound 9, 8-(4-Aminobutyl)-6-(2-chloro-5-(trifluoromethyl)phenyl)-2-(methylamino)pyrido[2,3-d]pyrimidin-7(8H)-one]",ΔTm at 10 µM,[1]; read-out: dTm 9,0.6 °C
same,ΔTm at 10 µM,[2]; read-out: dTm 9,0.6 °C
same,ΔTm at 10 µM,[3]; read-out: dTm 9,1.4 °C
same,ΔTm at 10 µM,[4]; read-out: dTm 9,2.3 °C
same,ΔTm at 10 µM,[5]; read-out: dTm 9,0.4 °C
same,ΔTm at 10 µM,[6]; read-out: dTm 9,-0.3 °C
same,ΔTm at 10 µM,[7]; read-out: dTm 9,0.3 °C
same,ΔTm at 10 µM,[8]; read-out: dTm 9,-0.7 °C
"CNc1ncc2cc(-c3cc(Cl)ccc3Br)c(=O)n(CCCCN)c2n1 [compound 10, 8-(4-Aminobutyl)-6-(2-bromo-5-chlorophenyl)-2-(methylamino)pyrido[2,3-d]pyrimidin-7(8H)-one]",ΔTm at 10 µM,[1]; read-out: dTm 10,1.1 °C
same,ΔTm at 10 µM,[2]; read-out: dTm 10,0.7 °C
same,ΔTm at 10 µM,[3]; read-out: dTm 10,1.8 °C
same,ΔTm at 10 µM,[4]; read-out: dTm 10,4.6 °C
same,ΔTm at 10 µM,[5]; read-out: dTm 10,0.4 °C
same,ΔTm at 10 µM,[6]; read-out: dTm 10,0.6 °C
same,ΔTm at 10 µM,[7]; read-out: dTm 10,0.3 °C
same,ΔTm at 10 µM,[8]; read-out: dTm 10,-0.8 °C
"CNc1ncc2cc(-c3cc(Br)ccc3Br)c(=O)n(CCCCN)c2n1 [compound 11, 8-(4-Aminobutyl)-6-(2,5-dibromophenyl)-2-(methylamino)pyrido[2,3-d]pyrimidin-7(8H)-one]",ΔTm at 10 µM,[1]; read-out: dTm 11,1 °C
same,ΔTm at 10 µM,[2]; read-out: dTm 11,0.8 °C
same,ΔTm at 10 µM,[3]; read-out: dTm 11,1.7 °C
same,ΔTm at 10 µM,[4]; read-out: dTm 11,3 °C
same,ΔTm at 10 µM,[5]; read-out: dTm 11,0.5 °C
same,ΔTm at 10 µM,[6]; read-out: dTm 11,0.3 °C
same,ΔTm at 10 µM,[7]; read-out: dTm 11,0.3 °C
same,ΔTm at 10 µM,[8]; read-out: dTm 11,-0.8 °C
"CNc1ncc2cc(-c3cc(F)c(-c4cccc(C)n4)cc3F)c(=O)n(CCCCN)c2n1 [compound 12, 8-(4-Aminobutyl)-6-(2,5-difluoro-4-(6-methylpyridin-2-yl)phenyl)-2-(methylamino)pyrido[2,3-d]pyrimidin-7(8H)-one]",ΔTm at 10 µM,[1]; read-out: dTm 12,2.2 °C
same,ΔTm at 10 µM,[2]; read-out: dTm 12,3.4 °C
same,ΔTm at 10 µM,[3]; read-out: dTm 12,-0.1 °C
same,ΔTm at 10 µM,[4]; read-out: dTm 12,2.5 °C
same,ΔTm at 10 µM,[5]; read-out: dTm 12,1.7 °C
same,ΔTm at 10 µM,[6]; read-out: dTm 12,0.2 °C
same,ΔTm at 10 µM,[7]; read-out: dTm 12,12.1 °C
same,ΔTm at 10 µM,[8]; read-out: dTm 12,0.4 °C
